# Measurements taken from patent US5298523A, “Method for treating transplant patients using mycalamide compounds” (priority 1992, dated 1994).
# Like-named read-outs stand apart in the source and are kept apart here.
# Legend:
# [1] = system: two-way human mixed lymphocyte response (human PBL); experiment: Two-way human mixed lymphocyte reaction (MLR), 3H-thymidine incorporation; type: cell-based
# Description: Preparation of human peripheral blood leukocyte (PBL) suspensions. Human peripheral blood suspensions were prepared from Leukotrap blood filters as follows: Leukotrap filters containing processed leukocytes from random, unrelated blood donors were obtained from the Indian River Blood Bank (Vero Beach, Fla.). Buffy-coat blood cell suspensions were recovered by reverse-flow phosphate-buffered saline purging and centrifugation for 15 minutes at 475× g. Buffy coats were removed, and 5 ml of the suspension was layered onto 5 ml of Histopaque gradient material. The Histopaque gradients were centrifuged at 475× g for 30 minutes. Lymphocytes were removed from the Histopaque-medium interface, and washed twice with 10 ml of PBS (Dulbecco's phosphate-buffered saline without CaCl2 and MgCl2.6H2 O). The final cell pellet was resuspended in TCM, and the cell concentration adjusted to 2×10^6 cells/ml.
# Two way mixed lymphocyte reaction (MLR). The immunosuppressive properties of mycalamide A were evaluated using the two-way MLR, utilizing murine splenocytes and human PBL. For the murine MLR, splenocytes from C57Bl/6J and BALB/c mice were prepared as described above, and a volume of […] of each cell suspension was added together to test and control wells of microtiter plates. Wells containing 0.20 ml of each cell suspension alone served as controls.
# Dilutions of the drug to be tested were prepared in absolute EtOH and further diluted to the appropriate concentration in TCM and added directly to the wells containing splenocyte combinations. Additional solvent (EtOH) control wells were also prepared by adding the equivalent percentage of EtOH to each culture well. Plates were incubated at 37° C. in a 5% CO2 humidified atmosphere for 88 hours. Following the incubation, 1.0 μCi of ^3 H-thymidine was added to each well, and the plates were returned to the incubator for 5 hours. The contents of each well were harvested onto glass-fiber filter strips, and the incorporation of ^3 H-thymidine was determined by a liquid scintillation counter. Similar conditions were utilized for MLR cultures using human peripheral blood lymphocytes prepared from unrelated donors as described above, with the exception that the initial incubation and subsequent ^3 H-thymidine pulse times were different (114 hours for initial incubation followed by a 6-hour incubation with ^3 H-thymidine). Plates were harvested in a similar manner, and ^3 H-thymidine incorporation determined as described above.
# [2] = system: allogeneic skin graft rejection, CBA mice; experiment: Allogeneic skin graft rejection (BALB/c to CBA); type: in vivo, mouse; set-up: key to Graft Scores: 0: rejection; +: no rejection; details: 0.01 mg/kg
# Description: Allogeneic skin grafting. The effects of mycalamide A on the rejection of allogeneic skin grafts were determined using the BALB/c→CBA skin graft model. Skin grafts were prepared from BALB/c donors as follows: donors were sacrificed by cervical dislocation and hair shaved from back, sides, and torso. A depilatory agent was used to remove any remaining hair. The prepared skin area was then swabbed with a Betadine and alcohol solution. The skin was removed by making an incision at the base of the tail, and the skin was lifted and separated from the underlying muscle in two sections. The skin was then placed in a sterile petri dish containing sterile, ice cold normal saline. A sterile, #7 cord borer was used to punch out approximately 16 graft discs from each animal skin preparation. Recipient CBA mice were anesthetized with 1.5 cc ketamine:xylamine. The back of each recipient animal was shaved and a depilatory agent used to remove excess hair. The prepared area was swabbed with Betadine:alcohol, and a small plug of skin, approximately the size of the prepared grafts, was removed by excision. The skin graft plug was then placed in the center of the excised region and the resulting transplanted area sprayed with a barrier film (liquid skin). Animals were placed one to a cage and supplied with sterile food and water, ad libitum. Mice were observed each day for signs of rejection of the graft (a shrinking and thickening of the graft with eventual sloughing).
# murine splenocytes = experiment: Mitogen-induced proliferation of murine splenocytes; type: cell-based; details: for activity at 0.5 µg/mL / activity at 0.05 µg/mL / activity at 0.005 µg/mL / activity at 0.0005 µg/mL / activity at 50 pg/mL: Mus musculus, Splenocyte; for activity at 0.5 µg/mL: 5.0 × 10^-1 μg/ml; for activity at 0.05 µg/mL: 5.0 × 10^-2 μg/ml; for activity at 0.005 µg/mL: 5.0 × 10^-3 μg/ml; for activity at 0.0005 µg/mL: 5.0 × 10^-4 μg/ml; for activity at 50 pg/mL: 5.0 × 10^-5 μg/ml
# Description: Preparation of splenocyte cell suspensions. […] The resulting supernatant was then transferred to another sterile centrifuge tube, and the cell concentration adjusted to 2×10^6 cells/ml dilution with TCM.
# Mitogen studies. The effects of mycalamide A on the mitogen-induced proliferation of murine splenocytes was investigated. Splenocytes (2×10^5 /well) from C57BL/6J or BALB/c mice were incubated with 1.0 μg/ml of Con A, 10 μg/ml of phytohemagglutinin (PHA), lipopolysaccharide (LPS) or pokeweed mitogen (PWM) and various concentrations of mycalamide A at 37° C. in a 5% CO2, humidified atmosphere for 90 hours. A volume of […] of a 20.0 μCi/ml of ^3 H-thymidine was added to each well, and the plates incubated for an additional 6 hours. Plates were harvested, and ^3 H-thymidine incorporation determined by counting samples in a liquid scintillation counter.
# [3] = Con A, read-out: Con A, % of control
# [4] = LPS, read-out: LPS, % of control
# [5] = PHA, read-out: PHA, % of control
# [6] = PWM, read-out: PWM, % of control
compound,measurement,setting,value
"C=C1CC(OC)(C(O)C(=O)NC2OCOC3C2OC(CC(O)CO)C(C)(C)C3OC)OC(C)C1C (stereo not drawn) [Mycalamide A, mycalamide A]",activity at 0.5 µg/mL,"[1]; 120 h, human, 5.0 × 10^-1 μg/ml, read-out: % of Positive Control MLR",0%
same,activity at 0.05 µg/mL,"[1]; 120 h, human, 5.0 × 10^-2 μg/ml, read-out: % of Positive Control MLR",0%
same,activity at 0.005 µg/mL,"[1]; 120 h, human, 5.0 × 10^-3 μg/ml, read-out: % of Positive Control MLR",0%
same,activity at 0.0005 µg/mL,"[1]; 120 h, human, 5.0 × 10^-4 μg/ml, read-out: % of Positive Control MLR",40%
same,activity at 50 pg/mL,"[1]; 120 h, human, 5.0 × 10^-5 μg/ml, read-out: % of Positive Control MLR",43%
same,activity at 5 pg/mL,"[1]; 120 h, human, 5.0 × 10^-6 μg/ml, read-out: % of Positive Control MLR",71%
same,activity at 500 fg/mL,"[1]; 120 h, human, 5.0 × 10^-7 μg/ml, read-out: % of Positive Control MLR",81%
same,IC50,[1]; Homo sapiens,0.017 ng/mL
same,% Alive,"[2]; Q2D × 7, 1-14 IP, D35",0%
same,Graft Scores,"[2]; Q2D × 7, 1-14 IP, D35",+
same,mean rejection time,"[2]; twice daily, intraperitoneally for 14 days",17.8 days
same,effect on rejection of allogeneic skin grafts,"[2]; twice daily, intraperitoneally for 14 days, in words",suppressed the normal rejection of allogeneic skin grafts
same,"suppression of Con A, LPS, and PWM stimulation","murine splenocytes; 5×10^-5 μg/ml, Con A, LPS, PWM, in words",suppressed
same,activity at 0.5 µg/mL,murine splenocytes; [3],0%
same,activity at 0.05 µg/mL,murine splenocytes; [3],0%
same,activity at 0.005 µg/mL,murine splenocytes; [3],0%
same,activity at 0.0005 µg/mL,murine splenocytes; [3],0%
same,activity at 50 pg/mL,murine splenocytes; [3],0%
same,activity at 0.5 µg/mL,murine splenocytes; [4],0%
same,activity at 0.05 µg/mL,murine splenocytes; [4],0%
same,activity at 0.005 µg/mL,murine splenocytes; [4],0%
same,activity at 0.0005 µg/mL,murine splenocytes; [4],0%
same,activity at 50 pg/mL,murine splenocytes; [4],68%
same,activity at 0.5 µg/mL,murine splenocytes; [5],0%
same,activity at 0.05 µg/mL,murine splenocytes; [5],0%
same,activity at 0.005 µg/mL,murine splenocytes; [5],0%
same,activity at 0.0005 µg/mL,murine splenocytes; [5],38%
same,activity at 50 pg/mL,murine splenocytes; [5],139%
same,activity at 0.5 µg/mL,murine splenocytes; [6],0%
same,activity at 0.05 µg/mL,murine splenocytes; [6],0%
same,activity at 0.005 µg/mL,murine splenocytes; [6],0%
same,activity at 0.0005 µg/mL,murine splenocytes; [6],0%
same,activity at 50 pg/mL,murine splenocytes; [6],62%
